From US9718781B2, “Methods and compounds for treating proliferative disorders and viral infections” (University College Dublin, National University of Ireland, …, priority 2012, dated 2017)
Where two headings read alike, the source gives them in different places.

Experiments:
human platelets = assay: U46619-induced human platelet aggregation ex vivo (platelet rich plasma); type: cell-based
Excerpt: A modification of the turbidimetric method originally developed by Born & Cross (Born, G. V. and Cross, M. J., The Aggregation of Blood Platelets, J Physiol, 1963, 168:178-95) is used. The principle is based on the diffraction of the light by particles. When a light beam passes through a suspension of particles, it is diffracted, depending on the number and the size of the particles in suspension.
In the Born & Cross method, a light beam passes through a platelet suspension and the quantity of light is measured by a detector placed after the sample. Upon platelet aggregation, the size of platelet aggregates will increase while the total number of free platelets will decrease. Consequently, less light will be diffracted and the detector will record an increase in light intensity. The aggregometer has been developed based on these concepts. Variations in light transmission recorded by this device reflects the platelet physiology. When an agonist of platelet aggregation is added to a platelet suspension, platelets undergo activation and shape change. This step is characterized by an increase in platelet's apparent volume and thus a decrease of transmitted light. Subsequent platelet aggregation gradually forms aggregates of increasing size. Transmitted light slightly increases until a plateau is reached. The aggregation of platelet can be confirmed after the experiment by visual direct inspection of the test tube.
Preparation of platelet suspension is achieved by blood centrifugation at 160 g for 10 minutes. The PRP is re-centrifuged at 160 g for 10 min to remove contaminating red and white blood cells. The supernatant which is collected contains the platelets rich plasma (PRP). The remaining blood is subsequently centrifuged at 900 g for 15 min in order to retrieve plasma (platelets poor plasma, PPP). PRP is diluted with PPP to reach a final concentration of 150×10^3 […] PRP is kept warmed at 37° C. in the aggregometer and the adequate dilution of drug to test is introduced in the sample. Platelet aggregation is induced after 10 minutes incubation. Light transmission (T) is measured throughout the experiment, which is ended 8 minutes after induction of aggregation. Maximal light transmission (Tmax) is determined in the sample without drugs. Minimal light transmission (Tmin) is measured in PRP without inducer.
The effect of NTP4 and the previously identified lead TP antagonist, TP20, on U46619-mediated platelet aggregation in side-by-side comparisons was performed in platelet rich plasma (PRP) using the PAP-8E platelet aggregometer.
FIG. 4A-4C show the effect of TP20 & NTP4 on U46619-mediated platelet aggregation. PRP was prepared from blood taken from healthy volunteers into syringes containing 3.8% sodium citrate and 10 μM indomethacin such that the final ratio of anticoagulant to blood was 1:9. Aliquots of PRP (300 μl) were pre-incubated for 10 min with the TP antagonists, TP20 and NTP4, where 2-fold serial dilutions from 1 μM were prepared for each, prior to stimulating platelets with 1 μM U46619, incubated at 37° C., with stirring. FIG. 4A and FIG. 4B: Representative dose-response platelet aggregation profiles for TP20 (FIG. 4A) and NTP4 (FIG. 4B), where data is presented as Percentage Aggregation, as determined by changes in light transmission using the PAP-8E Platelet Aggregation Profiler as a function of time. FIG. 4C: The dose-response curves for platelet aggregation are presented as the mean (±S.E.M.) maximum Percentage Aggregation as a function of the log of the TP antagonist concentration. Data presented is representative of ≧6 independent experiments.

platelets in whole blood = assay: U46619-mediated platelet aggregation in whole blood (Sysmex haematological analyzer); type: cell-based, human; details: antagonist 0.1 μM, 1 μM U46619
Method: From an efficacy point of view, this is an important assay and, physiologically, relevant with respect to the therapeutic target.
Initially, the Sysmex haematological analyzer was used to examine the effect of the TP antagonists at a single concentration (0.1 μM) on U46619 (1 μM)-mediated platelet aggregation in whole blood.
FIG. 3 illustrates effects of the TP antagonist compounds on U46619-mediated platelet aggregation. Blood was taken form healthy volunteer by venupuncture into syringes containing 3.8% sodium citrate, 10 μM Indomethacin, such that the ratio of anticoagulant:blood was 1:9. The blood was aliquoted and incubated for 10 min with TP20 and selected NTP compounds, as indicated, where the antagonist were used at 0.1 μM prior to stimulation with 1 μM U46619 for 3 min. The blood was fixed with formaldehyde and platelet numbers counted using the Sysmex haematological analyzer. Data is presented as the mean percentage of control or non-treated blood sample (Percentage of Control; %) and represent data from 3 independent experiments were samples were treated in duplicate.

[1] = PRP, PAP-8E aggregometer, 1 μM U46619, side-by-side, read-out: IC50 Value for Inhibition of U46619-Mediated Platelet Aggregation (Mean ± S.E.M.)

SMILES	IC50 (human platelets; Homo sapiens, Platelet, PRP, PAP-8E aggregometer, 1 μM U46619, side-by-side, read-out: IC50 Value for Inhibition of U46619-Mediated Platelet Aggregation (Mean ± S.E.M.)) [nM]	IC50 (human platelets; [1]) [nM]	inhibition of U46619-mediated reduction in platelet number (platelets in whole blood)	IC50 (human platelets; Homo sapiens, Platelet, human platelets ex vivo, Table 3, read-out: IC50 data for inhibition of U46619-induced platelet aggregation) [nM]
COc1ccc(-c2cccc(Oc3ccc(C#N)cc3S(=O)(=O)NC(=O)NC(C)(C)C)c2)cc1 [NTP4, N-(tert-butylcarbamoyl)-5-cyano-2-((4′-methoxy-[1,1′-biphenyl]-3-yl)oxy)benzenesulfonamide]	41.5 ± 7.69	40.3 ± 7.08	approx. 50%	
COc1ccc(-c2cccc(Oc3ccc([N+](=O)[O-])cc3S(=O)(=O)NC(=O)NC(C)(C)C)c2)cc1 [TP20, N-(tert-butylcarbamoyl)-2-((4′-methoxy-[1,1′-biphenyl]-3-yl)oxy)-5-nitrobenzene-sulfonamide]		4.62 ± 0.72	almost completely inhibited	4.71
